According to patent publication EP0958820A1, “Use of an imidazol derivative for the manufacture of a medicament for treating auto-immunodiseases” (Sanofi-Synthélabo, priority 1998, dated 1999):
Where a name gives a salt, the structure may show the parent alone.

Legend:
Type in all cases: cell-based
[1] = tested on: IL-4 production from mouse BMMC; assay: Antigen-induced IL-4 production from mouse BMMC (ELISA)
Protocol: (§1) • 1. Test drugs Mizolastine and terfenadine used were synthesised according to well known method in the art. Ketotifen fumarate (hereinafter 'ketotifen') was obtained from Toa Boshoku and dexamethasone from Sigma. • 2. Animals […] female mice and Balb/c female mice were used. • 3. Preparation of bone marrow-derived mast cells (hereinafter 'BMMC') Mouse BMMC were prepared in accordance with the method of Saito et al. J. Immunol. 138: 3927-3934, 1987. That is to say, femoral bone marrow cells from female CBA/J mice were suspended to concentrations of 2-5 x 10^5/ml in RPMI 1640 medium to which 50% of WEHI-3 culture supernatant had been added (containing 10% FBS, 5 x 10^-5M 2-mercaptoethanol, 50IU/ml penicillin, […] streptomycin). • 4. Production of IL-4 and TNF-α from mouse BMMC A 1/250 volume of anti-mouse DNP-IgE monoclonal antibody (Seikagaku Kogyo, […]) was added to mouse BMMC (2 x 10^6 cells/ml) and they were further sensitised by being incubated overnight. The sensitised BMMC were washed three times with RPMI 1640 medium, then suspended in RPMI 1640 medium to which 50% of WEHI-3 culture supernatant had been added to give 1.25 x 10^6 cells/ml (IL-4) or 3.75 x 10^6 cells/ml (TNF-α ). Having added 40 µl of a test drug solution prepared as a ten-fold dilution to 320 µl/well of the cell suspension and treated the cells for 30 minutes to one hour at 37°C in 5% CO2, antigen stimulation was applied adding 40 µl of a solution of dinitrophenyl human serum albumin (Sigma; hereinafter 'DNP-HSA'; 300ng/ml) (reaction solution 400 µl/well/48 well plate, final cell concentration 1∼3 x 10^6 cells/ml, final antigen concentration 30ng/ml). The level of the cytokine in the supernatant fluid from the culture was assayed by ELISA 18 hours (IL-4) or 4 hours (TNF-α ) following stimulation with the antigen. • 5. […] The level of TNF-α in the culture supernatant fluid was determined by ELISA 18 hours after stimulating with okadaic acid. • 6. […]

[2] = tested on: TNF-α production from mouse BMMC; assay: Antigen-induced TNF-α production from mouse BMMC (ELISA); conditions: 4 hours after antigen
Protocol: as §1

[3] = tested on: TNF-α production from mouse macrophages; assay: Okadaic acid-induced TNF-α production from mouse peritoneal macrophages (ELISA); conditions: Macrophage, okadaic acid 0.2 µM, 18 hours
Protocol: as §1, with “).” for “). Having added 40 µl of a test drug solution prepared as a ten-fold dilution to 320 µl/well of the cell suspension and treated the cells for 30 minutes to one hour at 37°C in 5% CO2, antigen stimulation was applied adding 40 µl of a solution of dinitrophenyl human serum albumin (Sigma; hereinafter 'DNP-HSA'; 300ng/ml) (reaction solution 400 µl/well/48 well plate, final cell concentration 1∼3 x 10^6 cells/ml, final antigen concentration 30ng/ml). The level of the cytokine in the supernatant fluid from the culture was assayed by ELISA 18 hours (IL-4) or 4 hours (TNF-α ) following stimulation with the antigen. • 5.”

CN1CCC(=C2c3ccccc3CC(=O)c3sccc32)CC1 [Ketotifen, Ketotifen fumarate]
inhibition at 10 µM ([1]; Mus musculus, at 10 µM, DNP-HSA stimulated, anti-DNP-IgE sensitised BMMC, 18 hours): 65.6%
activity against TNF-α production ([2]; 0.1∼10 µM): no activity

CC(C)(C)c1ccc(C(O)CCCN2CCC(C(O)(c3ccccc3)c3ccccc3)CC2)cc1 (stereo not shown) [terfenadine]
activity on IL-4 production ([1]; concentrations of 0.01∼1 µM): no activity
inhibition at 1 µM [3]: 24.6%
activity against TNF-α production ([2]; 0.01∼1 µM): no activity

C[C@@H]1C[C@H]2[C@@H]3CCC4=CC(=O)C=C[C@]4(C)[C@@]3(F)[C@@H](O)C[C@]2(C)[C@@]1(O)C(=O)CO [Dexamethasone, dexamethasone]
inhibition at 1 µM ([1]; Mus musculus, at 1 µM, DNP-HSA stimulated, anti-DNP-IgE sensitised BMMC, 18 hours): 61.6%
inhibition at 1 µM ([2]; Mus musculus, at 1 µM): 68.7%
